Results: patent publication EP4711366A1, “PYRIMIDO MACROHETEROCYCLIC COMPOUND AS WEE1-YES DUAL-TARGET INHIBITOR AND USE THEREOF” (Mindrank AI Ltd., priority 2023, dated 2024)
pIC50: −log10 of the molar value.

How the values were obtained:
[1] = biological target: Wee1 kinase (Homo sapiens, UniProt P30291); test: WEE1 protein kinase inhibitory activity assay (ADP-GLO luminescence); type: biochemical; conditions: for pIC50: Wee1 10 ng/well, ATP 10 µM, 3 h, 37 °C
Method: The influence of the compound MRANK-106 of the present disclosure on the kinase activity of Weel was assessed using an in vitro kinase reaction system.
Table 2-1. Information about reagents and consumables
① 1× kinase buffer: A 5× kinase buffer was diluted with ddH2O to make a 1× kinase buffer. Table 2-3. The reagent components added to the 1× kinase buffer
③ 5× enzyme working solution: The optimization of the enzyme concentration had been completed in previous work, and the concentration of the reagent used in the screening is shown in Table 2-4. A 5× enzyme working solution of the enzyme was formulated using the 1× kinase buffer.
④ Compound formulation: A 10 mM mother liquor was formulated using DMSO, aliquoted, and then stored at -20 °C. Immediately before use, the mother liquor was thawed, diluted with DMSO to 1 mM, serially diluted 4-fold to 10 concentration points, and then 40-fold diluted with the 1× kinase buffer to give a 2.5× working solution. Table 2-4. The experimental conditions for the kinase activity assay
After the above reagents were formulated and equilibrated to room temperature, 4 µL of the diluted solution of the compound to be tested and 2 µL of the formulated enzyme solution were added to reaction wells. After shaking and centrifugation, the plate was incubated at room temperature for 15 min, and 4 µL of the ATP solution was then added to start a kinase reaction. After 3 h of reaction at 37 °C, 10 µL of an ADP-GLO reagent was added. After thorough mixing, the mixture was left to react at room temperature for 40 min, and 20 µL of a detection reagent was then added. After 30 min of reaction at room temperature, the luminescence signals were detected using a SpectraMax L instrument. Two independent duplicate assays were performed. The inhibition rate of each well was calculated based on all activity wells and background signal wells, with an average calculated for duplicate wells. Meanwhile, the inhibition rate was plotted using the professional graphing and analysis software PRISM 9.0, and the IC50 was calculated.
The inhibition rates of the compounds to be tested against the kinase activity of Wee1 were calculated using the following formula: Inhibition rate% = (Lumvehicle−Lumcompound)/(Lumvehicle−Lumblank) × 100% [formula] • Lumcompound: the luminescence of the sample treatment groups • Lumvehicle: the luminescence of the solvent control group • Lumblank: the luminescence of the blank group

[2] = system: A427 cells; test: Tumor cell proliferation inhibitory activity assay (CCK-8); type: cell-based, Human; conditions: for pIC50: Homo sapiens, A-427, 72 h compound incubation, CCK-8
Method: Human lung cancer A427 cells are cancer cells reported to be sensitive to wee1 inhibitors. In this assay, the anti-cancer effects of the compounds of the present disclosure were verified by assessing the activity of the test substances in inhibiting A427 cell proliferation.
A427 cells were cultured according to the cell culture instructions, and cells in the logarithmic growth phase were collected, counted, resuspended in a complete culture medium, and inoculated into a 96-well plate at a cell concentration of 100 µL/3000 cells/well. The cells were incubated in an incubator at 37 °C with 100% relative humidity and 5% CO2 for 24 h.
The compounds to be tested were dissolved in DMSO and diluted 4-fold with a culture medium from 10 µM to 10 concentration gradients.
The culture medium waste was pipetted off, and 100 µL of the formulated culture medium of the compound to be tested was added to each well. The cells were incubated in an incubator at 37 °C with 100% relative humidity and 5% CO2 for 72 h.
The plate was taken out, the CCK-8 reagent was added at 10 µL/well, and the plate was incubated in an incubator at 37 °C for 2-4 h.
The cell growth inhibition rates of the drugs were calculated using the following formula: Cell growth inhibition rate% = [(Ac−As)/(Ac−Ab)] × 100% [formula] • As: the OA of the samples (cells + CCK-8 + compounds to be tested) • Ac: the OA of the normal growth cell control (cells + CCK-8) • Ab: the OA of the blank control (culture medium + CCK-8)
IC50 curve fitting was performed using the software Graphpad Prism 6 and the calculation formula XY-analysis/Nonlinear regression(curve fit)/Dose response-Inhibition/log(inhibitor)vs. response-Variable slope(four parameters), and the IC50 values were calculated. Table 1. Data analysis and results for some representative compounds

[3] = system: A427 human lung cancer cells; test: In vivo efficacy study against A427 tumors (subcutaneous tumor-bearing model); parameters: species or system BALB/c nude mice; conditions: for Relative tumor inhibition rate (%) Day 28 / Relative tumor volume Day 28: PO
Text: (§1) A427 human lung cancer cells were subcultured and expanded in an MEM culture medium containing 10% FBS. BALB/c nude mice aged 6-8 weeks were taken and each subcutaneously injected with 5 × 10^6 cells to establish a tumor-bearing model. The tumor volume was monitored, and when the tumor volume reached about 150 mm^3, the animals were randomized into 5 groups according to body weight and tumor volume. The animals were given, by oral gavage, the vehicle or compounds to be tested (ZN-c3 and IE) once daily for a total of 28 days. During the period of administration, the tumor volume and the animal body weight were measured twice a week, and the animals' states were observed daily. At the endpoint, the animals were euthanized with carbon dioxide, and the subcutaneous tumors were isolated and weighed.
(§2) The data calculation formulae are shown below: The tumor volume (TV) was calculated using the formula 1/2×axb^2, where a and b represent the length and width measurements of the tumor, respectively.
(§3) The tumor growth inhibition rate (%TGITV) was calculated using the formula (1 - TVT/TVC) × 100%, where TVc represents the average tumor volume of the negative control group, and TVT represents the average tumor volume of the treatment group.
(§4) The relative tumor volume (RTV) was calculated using the formula Vt/V0, where V0 represents the tumor volume at the time of grouping, and Vt represents the tumor volume at each measurement.

[4] = system: Human ovarian cancer OVCAR-3 cells; test: In vivo efficacy study against OVCAR-3 tumors (subcutaneous tumor-bearing model); parameters: species or system BALB/c nude mice; conditions: for Relative tumor inhibition (%) Day 28 / Relative tumor volume Day 28: PO
Method: as §1, with “Human ovarian” for “A427 human lung”, “cancer OVCAR-3” for “cancer”, “RPMI-1640” for “MEM”, “20% FBS and 0.01 mg/mL bovine insulin.” for “10% FBS.”
as §2, §3, §4

Wee1 kinase, sequence (P30291 whole entry): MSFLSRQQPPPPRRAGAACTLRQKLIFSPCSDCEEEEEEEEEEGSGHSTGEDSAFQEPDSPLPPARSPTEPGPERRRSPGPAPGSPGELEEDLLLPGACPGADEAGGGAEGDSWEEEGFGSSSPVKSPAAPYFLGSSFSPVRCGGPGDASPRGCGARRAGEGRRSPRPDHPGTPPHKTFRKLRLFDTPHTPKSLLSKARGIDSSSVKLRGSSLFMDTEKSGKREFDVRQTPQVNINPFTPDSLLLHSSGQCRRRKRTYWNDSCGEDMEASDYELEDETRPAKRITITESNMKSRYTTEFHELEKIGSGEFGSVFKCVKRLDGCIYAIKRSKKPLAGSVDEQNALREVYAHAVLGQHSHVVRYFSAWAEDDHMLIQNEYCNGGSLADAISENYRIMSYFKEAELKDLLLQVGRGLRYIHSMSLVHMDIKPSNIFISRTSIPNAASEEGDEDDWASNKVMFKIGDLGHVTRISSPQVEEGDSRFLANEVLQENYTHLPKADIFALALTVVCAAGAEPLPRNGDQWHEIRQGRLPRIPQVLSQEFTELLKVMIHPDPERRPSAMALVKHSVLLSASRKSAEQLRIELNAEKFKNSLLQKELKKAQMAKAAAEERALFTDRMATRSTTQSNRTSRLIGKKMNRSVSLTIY

inhibition of the Weel target (in words) ([1]; summary statement on the assay results) | SMILES | pIC50 [1] | pIC50 [2] | Relative tumor inhibition rate (%) Day 28 ([3]; 30mg/kg, QD×28) | Relative tumor volume Day 28 ([3]; 30mg/kg, QD×28) | Relative tumor inhibition rate (%) Day 28 ([3]; 80mg/kg, QD×28) | Relative tumor volume Day 28 ([3]; 80mg/kg, QD×28) | Relative tumor inhibition (%) Day 28 ([4]; 100mg/kg, QD×28) | Relative tumor volume Day 28 ([4]; 100mg/kg, QD×28) | activity in inhibiting cancer cell proliferation compared with reference compound Debio 0123 or ZN-c3 ([2]; comparison in words) | Relative tumor inhibition rate (%) Day 28 ([3]; 80/60 mg/kg, QD × 28) | Relative tumor volume Day 28 ([3]; 80/60 mg/kg, QD × 28) | activity in inhibiting tumor growth in the A427 tumor model compared with ZN-c3 ([3]; comparison in words) | Relative tumor inhibition (%) Day 28 ([4]; 20 mg/kg, QD × 28) | Relative tumor volume Day 28 ([4]; 20 mg/kg, QD × 28) | Relative tumor inhibition (%) Day 28 ([4]; 40 mg/kg, QD × 28) | Relative tumor volume Day 28 ([4]; 40 mg/kg, QD × 28) | Relative tumor inhibition (%) Day 28 ([4]; 80/60 mg/kg, QD × 28) | Relative tumor volume Day 28 ([4]; 80/60 mg/kg, QD × 28) | activity in inhibiting tumor growth in the OVCAR-3 tumor model compared with ZN-c3 ([4]; comparison in words)
– | C=CCn1c(=O)c2cnc(Nc3ccc(N4CCN(C)CC4)cc3)nc2n1-c1ccc2c(n1)C(O)(CC)CC2 (stereo not drawn) [ZN-c3, reference compound] | 8.25 | 6.89 | 16.17% | 5.03 | 48.93% | 3.12 | 61.10% | 2.01 | – | – | – | – | – | – | – | – | – | – | –
strongly inhibited | Cc1cc(Nc2ncc3c(=O)n4n(c3n2)-c2cccc(n2)[C@](C)(O)CCC=CC4)ccc1OC1CCN(C)CC1 (stereo in doubt) [Compound IE, (R,Z)-12-hydroxy-12-methyl-2-((3-methyl-4-((1-methylpiperidin-4-yl)oxy)phenyl)amino)-7,10,11,12-tetrahydro-5H-13,17-(azeno)pyrimido[4',5':3,4]pyrazolo[1,2-a] [1,2]diazacyclotridecin-5-one] | 8.11 | 7.89 | 60.81% | 2.41 | – | – | – | – | several times to several dozen times higher | 99.75% | 0.02 | higher activity than the reference molecule ZN-c3 | 40.51% | 3.16 | 81.11% | 0.94 | 92.69% | 0.38 | significantly better activity than ZN-c3
